Test system: cells in the GCL of mouse retinas
Assay: NMDA-induced excitotoxic cell death in the GCL of retina-eyecups
Format: cell-based
Procedure: All animal procedures were in compliance with the NIH Guide for the Care and Use of Laboratory Animals and approved by the Institutional Animal Care and Use Committees at SUNY College of Optometry. Experiments were performed on retinas of wild type (WT), connexin knockout (KO) mice (Cx36^−/−, Cx45^−/−, and Cx36^−/−/45^−/− dKO), and their heterozygous (Het) littermates. The methods used to impale and label neurons have been described previously (Hu et al., J Neurosci 23:[…] (2003); Völgyi et al., Journal of Comparative Neurology 512:664-687 (2009)). Briefly, flattened retina-eyecups were placed in a superfusion chamber, which was mounted on the stage of a BX51WI light microscope (Olympus) within a light-tight Faraday cage. […] The retina-eyecups were superfused with a modified, oxygenated Ames medium maintained at 35° C.
Various methods were employed to produce cell death. (1) Single cell apoptosis: CytC was injected into individual RGCs or Müller cells for 15 minutes after which retinas were incubated for 4 hours in oxygenated Ames medium before fixation. After streptavidin histology, apoptotic cells were detected with an anti-active caspase 3 antibody or with Terminal deoxynucleotidyl transferase dUTP nick end labeling (TUNEL) staining. (2) Excitotoxicity: To assess the contribution of GJs to cell death within populations of RGCs and amacrine cells we conducted parallel experiments in which retinas were preincubated for 20 minutes in normal Ames medium or in one containing the GJ blockers meclofenamic acid (MFA; 50 μM) or 18-beta-glycyrrhetinic acid (18Beta-GA; 25 μM). Both control and drug-treated retinas were then exposed for 1 hour to NMDA (100-300 μM) to induce excitotoxicity followed by 4 hours in the control Ames solution. (3) Retinal ischemia: Transient in vivo retinal ischemia was induced by introducing into the anterior chamber a 33-gauge needle attached to a saline-filled reservoir (0.9% sodium chloride) that was raised above the animal so as to increase intraocular pressure (IOP) to a level […]. MFA (2 μl, 500 μM) was administered intravitreally either 30 minutes before or 3 and 24 hours following the ischemic insult. […]
Apoptotic and necrotic cell death were assessed by cell counts following: (1) staining with Live/Death Viability Assay (calcein AM/ethidium homodimer (EthD) (Invitrogen); (2) TUNEL, or, (3) labeling for activated caspase 3. For population studies, dead cells were counted manually within 500×500 μm areas (5 areas per retina) from micrographs of whole-mounts using images acquired by confocal microscope. Nuclear cell counts were made per unit length (500 μm) of frozen retinal cross-sections labeled with propidium iodide (2 μg/ml).

CC1(C)[C@@H](O)CC[C@]2(C)[C@H]3C(=O)C=C4[C@@H]5C[C@@](C)(C(=O)O)CC[C@]5(C)CC[C@@]4(C)[C@]3(C)CC[C@@H]12 [18Beta-GA, 18-Beta-glycyrrhetinic acid]
cell viability, blocker alone (control experiments, 18Beta-GA or MFA alone without NMDA, p>0.1): did not affect cell viability
cell death in the GCL induced by excitotoxicity (retinas preincubated in 18Beta-GA 25 μM or MFA 50 μM, then NMDA 100-300 μM 1 h, vs NMDA alone, p<0.001): significantly reduced

Source: patent US12178846B2, “Methods of using gap junctions as therapeutic targets for the treatment of degenerative disorders of the retina” (The Research Foundation for The State University of New York, priority 2014, dated 2024)
